{
  "source": "patent US10828317B2",
  "about": "“Method of treating bacterial infections” (priority 2016, dated 2020)",
  "key": {"[1]": {"system": "M. luteus EN0455", "assay": "MIC", "format": "cell-based, Micrococcus luteus", "conditions": "combination FdUrd+trimethoprim+uridine, Table 8"}, "[2]": {"system": "P. mirabilis EN0457", "assay": "MIC", "format": "cell-based, Proteus mirabilis", "conditions": "combination FdUrd+trimethoprim+uridine, Table 8"}, "[3]": {"system": "E. coli B EN0458", "assay": "MIC", "format": "cell-based, Escherichia coli B", "conditions": "combination FdUrd+trimethoprim+uridine, Table 8"}, "[4]": {"system": "P. aeruginosa EN0459", "assay": "MIC", "format": "cell-based, Pseudomonas aeruginosa", "conditions": "combination FdUrd+trimethoprim+uridine, Table 8"}, "[5]": {"system": "P. aeruginosa EN0460", "assay": "MIC", "format": "cell-based, Pseudomonas aeruginosa", "conditions": "combination FdUrd+trimethoprim+uridine, Table 8"}, "[6]": {"system": "E. aerogenes EN0461", "assay": "MIC", "format": "cell-based, Enterobacter aerogenes", "conditions": "combination FdUrd+trimethoprim+uridine, Table 8"}, "[7]": {"system": "K. pneumoniae EN0463", "assay": "MIC", "format": "cell-based, Klebsiella pneumoniae", "conditions": "combination FdUrd+trimethoprim+uridine, Table 8"}, "[8]": {"system": "S. epidermidis EN0456", "assay": "MIC", "format": "cell-based, Staphylococcus epidermidis", "conditions": "combination FdUrd+trimethoprim+uridine, Table 8"}, "[9]": {"system": "Citrobacter sp. EN0465", "assay": "MIC", "format": "cell-based", "conditions": "combination FdUrd+trimethoprim+uridine, Table 8"}, "[10]": {"system": "A. pittii or A. nosocomialis EN0180", "assay": "MIC", "format": "cell-based, Acinetobacter pittii or nosocomialis", "conditions": "combination FdUrd+trimethoprim+uridine, Table 8"}, "[11]": {"system": "P. aeruginosa EN0422", "assay": "MIC", "format": "cell-based, Pseudomonas aeruginosa", "conditions": "combination FdUrd+trimethoprim+uridine, Table 8"}, "[12]": {"system": "P. mirabilis ST19 EN0445", "assay": "MIC", "format": "cell-based, Proteus mirabilis", "conditions": "combination FdUrd+trimethoprim+uridine, Table 8"}, "[13]": {"system": "E. coli EN001", "assay": "MIC, WT (EN001 = EN0001, ATCC 25922)", "format": "cell-based, Escherichia coli", "conditions": "combination FdUrd+trimethoprim+uridine, Table 19"}, "[14]": {"system": "E. coli EN002", "assay": "MIC, DtoIC", "format": "cell-based, Escherichia coli", "conditions": "combination FdUrd+trimethoprim+uridine, Table 8"}, "[15]": {"system": "P. aeruginosa EN004", "assay": "MIC, WT (EN004 = EN0004)", "format": "cell-based, Pseudomonas aeruginosa", "conditions": "combination FdUrd+trimethoprim+uridine"}, "[16]": {"system": "K. pneumoniae EN006", "assay": "MIC, WT (EN006 = EN0006, ATCC 13883)", "format": "cell-based, Klebsiella pneumoniae", "conditions": "combination FdUrd+trimethoprim+uridine"}, "[17]": {"system": "A. baumannii EN007", "assay": "MIC, WT (EN007 = EN0007)", "format": "cell-based, Acinetobacter baumannii", "conditions": "combination FdUrd+trimethoprim+uridine"}, "[18]": {"system": "S. aureus EN008", "assay": "MIC, Gram-positive control", "format": "cell-based, Staphylococcus aureus", "conditions": "combination FdUrd+trimethoprim+uridine, Table 8"}, "[19]": {"system": "E. coli EN012", "assay": "MIC, WT", "format": "cell-based, Escherichia coli", "conditions": "combination FdUrd+trimethoprim+uridine, Table 8"}, "[20]": {"system": "P. aeruginosa EN014", "assay": "MIC, WT", "format": "cell-based, Pseudomonas aeruginosa", "conditions": "combination FdUrd+trimethoprim+uridine, Table 8"}, "[21]": {"system": "A. baumannii EN016", "assay": "MIC, WT", "format": "cell-based, Acinetobacter baumannii", "conditions": "combination FdUrd+trimethoprim+uridine, Table 8"}, "[22]": {"system": "E. coli EN0134", "assay": "MIC, AmpC (CMY-4)", "format": "cell-based", "conditions": "combination FdUrd+trimethoprim+uridine, Table 19"}, "[23]": {"system": "E. coli EN0136", "assay": "MIC, ESBL (CTX-M-2)", "format": "cell-based", "conditions": "combination FdUrd+trimethoprim+uridine, Table 19"}, "[24]": {"system": "E. coli EN0137", "assay": "MIC, ESBL (CTX-M-15)", "format": "cell-based", "conditions": "combination FdUrd+trimethoprim+uridine, Table 19"}, "[25]": {"system": "E. coli EN0235", "assay": "microbe, parasite or virus in culture", "format": "cell-based", "conditions": "combination FdUrd+trimethoprim+uridine, Table 19"}, "[26]": {"system": "K. pneumoniae EN0140", "assay": "MIC, AmpC (DHA-1)", "format": "cell-based", "conditions": "combination FdUrd+trimethoprim+uridine, Table 19"}, "[27]": {"system": "K. pneumoniae EN0145", "assay": "MIC, KPC-2", "format": "cell-based", "conditions": "combination FdUrd+trimethoprim+uridine, Table 19"}, "[28]": {"system": "K. pneumoniae EN0244", "assay": "MIC, colistinR", "format": "cell-based", "conditions": "combination FdUrd+trimethoprim+uridine, Table 19"}, "[29]": {"system": "K. pneumoniae EN0245", "assay": "MIC, colistinR", "format": "cell-based", "conditions": "combination FdUrd+trimethoprim+uridine, Table 19"}, "[30]": {"system": "K. pneumoniae EN0249", "assay": "MIC, colistinR", "format": "cell-based", "conditions": "combination FdUrd+trimethoprim+uridine, Table 19"}, "[31]": {"system": "S. flexneri APV00907", "assay": "MIC and antibiogram", "format": "cell-based", "conditions": "combination FdUrd+trimethoprim+uridine, Table 22A", "text": "Inhibition of Heliobacter is important in view of increasing resistance and its association to gastric cancer."}, "[32]": {"system": "S. sonnei APV00908", "assay": "MIC and antibiogram", "format": "cell-based", "conditions": "combination FdUrd+trimethoprim+uridine, Table 22A"}},
  "data": [
    {"smiles": "O=c1[nH]c(=O)n([C@H]2C[C@H](O)[C@@H](CO)O2)cc1F", "note": "[FdUrd, Fluorodeoxyuridine]", "values": [
      {"measurement": "MIC", "setting": "[1]", "value": 2, "unit": "µg/mL"},
      {"measurement": "MIC", "setting": "[2]", "value": 1, "unit": "µg/mL"},
      {"measurement": "MIC", "setting": "[3]", "value": 0.032, "unit": "µg/mL"},
      {"measurement": "MIC", "setting": "[4]", "value": ">4", "unit": "µg/mL"},
      {"measurement": "MIC", "setting": "[5]", "value": ">4", "unit": "µg/mL"},
      {"measurement": "MIC", "setting": "[6]", "value": 1, "unit": "µg/mL"},
      {"measurement": "MIC", "setting": "[7]", "value": 0.25, "unit": "µg/mL"},
      {"measurement": "MIC", "setting": "[8]", "value": "<0.008", "unit": "µg/mL"},
      {"measurement": "MIC", "setting": "[9]", "value": ">4", "unit": "µg/mL"},
      {"measurement": "MIC", "setting": "[10]", "value": 4, "unit": "µg/mL"},
      {"measurement": "MIC", "setting": "[11]", "value": ">4", "unit": "µg/mL"},
      {"measurement": "MIC", "setting": "[12]", "value": 0.5, "unit": "µg/mL"},
      {"measurement": "MIC", "setting": "[13]", "value": 0.25, "unit": "µg/mL"},
      {"measurement": "MIC", "setting": "[14]", "value": 0.032, "unit": "µg/mL"},
      {"measurement": "MIC", "setting": "[15]; Table 8", "value": ">4", "unit": "µg/mL"},
      {"measurement": "MIC", "setting": "[15]; Table 19", "value": ">4", "unit": "µg/mL"},
      {"measurement": "MIC", "setting": "[16]; Table 8", "value": 0.5, "unit": "µg/mL"},
      {"measurement": "MIC", "setting": "[16]; Table 19", "value": 0.5, "unit": "µg/mL"},
      {"measurement": "MIC", "setting": "[17]; Table 8", "value": ">4", "unit": "µg/mL"},
      {"measurement": "MIC", "setting": "[17]; Table 19", "value": ">4", "unit": "µg/mL"},
      {"measurement": "MIC", "setting": "[18]", "value": "<0.008", "unit": "µg/mL"},
      {"measurement": "MIC", "setting": "[19]", "value": 0.032, "unit": "µg/mL"},
      {"measurement": "MIC", "setting": "[20]", "value": ">4", "unit": "µg/mL"},
      {"measurement": "MIC", "setting": "[21]", "value": 4, "unit": "µg/mL"},
      {"measurement": "MIC", "setting": "[22]", "value": ">4", "unit": "µg/mL"},
      {"measurement": "MIC", "setting": "[23]", "value": 1, "unit": "µg/mL"},
      {"measurement": "MIC", "setting": "[24]", "value": ">4", "unit": "µg/mL"},
      {"measurement": "MIC", "setting": "[25]", "value": 0.06, "unit": "µg/mL"},
      {"measurement": "MIC", "setting": "[26]", "value": ">4", "unit": "µg/mL"},
      {"measurement": "MIC", "setting": "[27]", "value": ">4", "unit": "µg/mL"},
      {"measurement": "MIC", "setting": "[28]", "value": ">4", "unit": "µg/mL"},
      {"measurement": "MIC", "setting": "[29]", "value": ">4", "unit": "µg/mL"},
      {"measurement": "MIC", "setting": "[30]", "value": ">4", "unit": "µg/mL"},
      {"measurement": "MIC", "setting": "[31]", "value": ">4", "unit": "µg/mL"},
      {"measurement": "MIC", "setting": "[32]", "value": ">4", "unit": "µg/mL"}
    ]}
  ]
}
